Measurements: doi:10.1101/208439v1 (biorxiv, 2017)
Where a chain is given by its changes, count along the chain named. Where two headings read alike, the source gives them in different places.

Key:
Assay in all cases: HotSpot [3H]SAM filter-binding methyltransferase assay
Type in all cases: biochemical
NSD2 [1] = biological target: T1, NSD2 (Homo sapiens, UniProt O96028, E1099K)
T1 construct: full length (residues 2-1365), N-terminal His tag, insect cell/baculovirus
T1 sequence (O96028 2-1365 E1099K): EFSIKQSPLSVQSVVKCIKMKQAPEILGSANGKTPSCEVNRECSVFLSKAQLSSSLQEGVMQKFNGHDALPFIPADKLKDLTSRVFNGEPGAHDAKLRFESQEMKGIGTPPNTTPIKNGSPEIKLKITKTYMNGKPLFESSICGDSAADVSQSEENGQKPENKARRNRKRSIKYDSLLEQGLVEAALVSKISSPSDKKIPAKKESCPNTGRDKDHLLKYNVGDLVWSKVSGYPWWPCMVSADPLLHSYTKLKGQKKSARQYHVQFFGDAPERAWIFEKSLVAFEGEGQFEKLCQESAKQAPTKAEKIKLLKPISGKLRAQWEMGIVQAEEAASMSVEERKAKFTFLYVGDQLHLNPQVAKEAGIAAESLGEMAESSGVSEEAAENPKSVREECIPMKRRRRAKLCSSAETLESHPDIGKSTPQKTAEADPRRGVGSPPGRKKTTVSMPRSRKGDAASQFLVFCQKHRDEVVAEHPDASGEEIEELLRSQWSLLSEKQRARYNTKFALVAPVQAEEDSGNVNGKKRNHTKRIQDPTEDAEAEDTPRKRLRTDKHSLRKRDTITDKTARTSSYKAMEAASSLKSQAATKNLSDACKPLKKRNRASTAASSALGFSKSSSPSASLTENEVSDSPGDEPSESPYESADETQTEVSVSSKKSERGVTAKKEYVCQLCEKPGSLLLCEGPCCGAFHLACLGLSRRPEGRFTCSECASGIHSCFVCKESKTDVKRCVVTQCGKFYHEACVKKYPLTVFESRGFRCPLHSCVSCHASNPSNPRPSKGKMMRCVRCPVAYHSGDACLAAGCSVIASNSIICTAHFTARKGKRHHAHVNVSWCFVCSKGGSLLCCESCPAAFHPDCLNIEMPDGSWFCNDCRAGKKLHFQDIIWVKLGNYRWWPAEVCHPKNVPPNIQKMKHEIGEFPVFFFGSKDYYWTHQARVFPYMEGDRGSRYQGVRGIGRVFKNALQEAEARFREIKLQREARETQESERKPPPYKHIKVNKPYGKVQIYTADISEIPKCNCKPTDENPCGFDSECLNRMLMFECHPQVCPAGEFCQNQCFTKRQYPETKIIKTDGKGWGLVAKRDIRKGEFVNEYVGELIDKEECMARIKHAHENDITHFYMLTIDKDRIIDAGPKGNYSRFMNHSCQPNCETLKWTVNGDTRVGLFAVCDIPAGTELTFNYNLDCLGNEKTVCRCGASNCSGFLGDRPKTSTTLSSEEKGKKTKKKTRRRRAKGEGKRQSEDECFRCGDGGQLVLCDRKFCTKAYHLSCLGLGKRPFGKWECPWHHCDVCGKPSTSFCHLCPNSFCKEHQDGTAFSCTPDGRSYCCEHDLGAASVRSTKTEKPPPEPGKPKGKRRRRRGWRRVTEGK

NSD2 [2] = biological target: T2, NSD2 (Homo sapiens, UniProt O96028, T1150A)
T2 construct: full length (residues 2-1365), N-terminal His tag, insect cell/baculovirus
T2 sequence (O96028 2-1365 T1150A): T1 sequence (O96028 2-1365 E1099K) with K1098E, T1149A

PRMT3 = PRMT3 (Homo sapiens, UniProt O60678); parameters: residues 2-531, N-terminal His tag, E. coli
[3] = nucleosomes, […] SAM, pH […] MgCl2, […] DTT, […] °C, single experiment

Sequence of PRMT3 (O60678 2-531): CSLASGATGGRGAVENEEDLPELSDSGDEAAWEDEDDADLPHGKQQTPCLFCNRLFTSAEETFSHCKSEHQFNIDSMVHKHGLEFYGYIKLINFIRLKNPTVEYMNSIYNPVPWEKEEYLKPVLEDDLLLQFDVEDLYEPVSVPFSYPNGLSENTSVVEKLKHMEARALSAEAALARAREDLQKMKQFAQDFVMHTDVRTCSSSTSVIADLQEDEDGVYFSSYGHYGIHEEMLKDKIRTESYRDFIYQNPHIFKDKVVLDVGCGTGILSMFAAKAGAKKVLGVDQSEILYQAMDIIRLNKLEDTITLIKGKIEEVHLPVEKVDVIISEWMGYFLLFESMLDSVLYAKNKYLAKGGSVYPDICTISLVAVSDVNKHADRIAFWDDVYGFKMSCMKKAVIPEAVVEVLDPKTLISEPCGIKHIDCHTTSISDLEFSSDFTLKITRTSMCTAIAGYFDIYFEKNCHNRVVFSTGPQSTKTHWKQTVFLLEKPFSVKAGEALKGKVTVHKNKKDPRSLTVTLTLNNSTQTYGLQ

IC50 (NSD2 [1]) [µM]	IC50 (NSD2 [2]) [µM]	IC50 (PRMT3) [µM]	IC50 (NSD2 [1]; [3]) [µM]	IC50 (NSD2 [2]; [3]) [µM]	IC50 (PRMT3; histone H4, […] SAM, pH […] MgCl2, […] DTT, […] °C, single experiment) [µM]	Structure (SMILES)
2.2	2.3	36				CC1(C)CCC(CN2CCN(c3ccc(C(=O)NS(=O)(=O)c4ccc(NCC5CCOCC5)c([N+](=O)[O-])c4)c(Oc4cnc5[nH]ccc5c4)c3)CC2)=C(c2ccc(Cl)cc2)C1 [ABT-199]
			0.11	0.17		O=C1C(Cl)=C(NCCN2CCOCC2)C(=O)c2ncccc21 [DA3003-1]
			7.2	8	5.7	COc1cccc(-n2nc(C(=O)O)cc2-c2ccc(C3CCCCC3)c(Cl)c2)c1 [TC LPA5 4]
